We go through five molecules from article PMC3541007 (ChemMedChem, 2009).

For assay [1], the system named is M. tuberculosis H37Rv PmabAinhA (C-15T). In kind it is cell-based. Conditions: for MIC H37Rv PmabAinhA (C-15T): four weeks.
For assay [2], the system named is M. tuberculosis H37Rv ΔkatG. It is filed as cell-based, Mycobacterium tuberculosis.
The subject of another assay is H37Rv. As to conditions: cited from earlier work.
Assay [3] deals with InhA. As to conditions: read-out: InhA IC50; cited from earlier work.
Assay [4] has as its target InhA. Conditions: read-out: Ki against InhA; cited from earlier work.
Another assay has as its system M. tuberculosis H37Rv. It is filed as cell-based. As to conditions: wild-type, INH-sensitive, four weeks.

Converted amounts (≈) assume the structure as drawn. “And” between values parts separate entries of the source, which are not always exact repeats. Identical values can stand only once. Like-named read-outs stand apart in the source and are kept apart here.

For `NNC(=O)c1ccncc1` [INH, isoniazid], the “fold loss in potency versus InhA(C-15T) strain compared to wild-type” value in assay [1] (MIC ratio vs wild-type strain) is reported as 13 fold. Also, the “MIC H37Rv ΔkatG” value in assay [2] is >200 (>1400) µg/ml and >200 (>1400) µM.
The IC50 is the concentration that gives 50% inhibition. Consider `CCCCCCCCc1ccc(Oc2ccccc2)c(O)c1` [Sullivan’s n-octyl analog], for which the “MIC vs. H37Rv” value in the assay on H37Rv (des-chloro analogs of Sullivan) is 6.5 µM (≈ 1.94 µg/mL). The IC50 in the assay on InhA [3] was 5 nM.
As usually defined, the Ki is a dissociation constant, usually derived from enzyme kinetics or from competition with a known ligand. For the molecule `NC(=O)C1=CN([C@@H]2O[C@H](COP(=O)(O)OP(=O)(O)OC[C@H]3O[C@@H](n4cnc5c(N)ncnc54)[C@H](O)[C@@H]3O)[C@@H](O)[C@H]2O)C=C[C@@H]1C(=O)c1ccncc1` [INH-NAD], at InhA [4], the inhibition constant (Ki) was 5 nM.
For the molecule 5-n-butyltriclosan [Compound 10], the “MIC H37Rv” value was 9.4 mg/L in the assay with M. tuberculosis H37Rv and 30 µM in the assay with M. tuberculosis H37Rv (value in parentheses). The “MIC H37Rv PmabAinhA (C-15T)” value worked out at 37 mg/L in assay [1] and 120 µM in assay [1] (value in parentheses). The “MIC H37Rv ΔkatG” value in assay [2] was 19 (60) µg/ml and 19 (60) µM.
By MIC is commonly meant the lowest concentration found to suppress growth. On to `CCc1cc(C(N)=S)ccn1` [ethionamide], for which the MIC with H37Rv was 18 µM (≈ 2.99 µg/mL).
